Source: PubChem BioAssay AID248 (DTP/NCI, 2004)
Several values for one entry are separate records, joined by “and”; a condition that tells them apart may be missing. Identical values can stand only once. Toxic doses and inconclusive results are not listed.

Test system: L1210 leukemia ip in BDF1 mice, survival T/C
Test: NCI In Vivo Anticancer Drug Screen. Data for tumor model L1210 Leukemia (intraperitoneal) in B6D2F1 (BDF1) mice
Settings: endpoint: mean survival time, higher = longer survival
Summary of the method: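 Mice bearing the transplanted tumor received compound or vehicle. Survival of the treated group was divided by that of the vehicle-treated control group to give the ratio.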

[1] = dose: 100.0 mg/kg/injection, schedule: Q01DX001 (ip), vehicle: saline
[2] = dose: 200.0 mg/kg/injection, schedule: Q01DX001 (ip), vehicle: saline
[3] = dose: 400.0 mg/kg/injection, schedule: Q01DX001 (ip), vehicle: saline

SMILES: Cc1ccc(C(C)C)cc1OCO
- T/C (dose: 20.0 mg/kg/injection, schedule: Q01DX Z (ip), vehicle: methylcellulose (MC)): 98 % of control
- T/C (dose: 30.0 mg/kg/injection, schedule: Q01DX Z (ip), vehicle: methylcellulose (MC)): 105 % of control

SMILES: CCOC(=O)COc1ccc(N=NN(C)c2ccccc2)cc1
- T/C (dose: 111.0 mg/kg/injection, schedule: Q01DX Z (ip), vehicle: carboxymethylcellulose (CMC)): 102 % of control
- T/C (dose: 166.0 mg/kg/injection, schedule: Q01DX Z (ip), vehicle: carboxymethylcellulose (CMC)): 104 % of control
- T/C (dose: 250.0 mg/kg/injection, schedule: Q01DX Z (ip), vehicle: carboxymethylcellulose (CMC)): 113 % of control

SMILES: COc1nc(OC)n(C)c(=O)c1OP(=O)(OC)OC
- T/C (dose: 50.0 mg/kg/injection, schedule: Q01DX001 (ip), vehicle: saline): 98 % of control
- T/C [1]: 93 % of control
- T/C [2]: 93 % of control
- T/C [3]: 95 % of control

SMILES: CC(=O)c1ccccc1-n1c(C)ccc1C
- T/C (dose: 100.0 mg/kg/injection, schedule: Q01DX009 (ip), vehicle: saline): 95 % of control
- T/C (dose: 100.0 mg/kg/injection, schedule: Q04DX003 (ip), vehicle: saline + alcohol): 100 % of control
- T/C (dose: 200.0 mg/kg/injection, schedule: Q01DX009 (ip), vehicle: saline): 98 % of control
- T/C (dose: 200.0 mg/kg/injection, schedule: Q04DX003 (ip), vehicle: saline + alcohol): 100 % of control
- T/C (dose: 400.0 mg/kg/injection, schedule: Q01DX009 (ip), vehicle: saline): 98 % of control
- T/C (dose: 400.0 mg/kg/injection, schedule: Q04DX003 (ip), vehicle: saline + alcohol): 108 % of control

SMILES: Cc1ccc(NC(=O)COc2cc(Cl)c(Cl)cc2Cl)cc1C
- T/C (dose: 25.0 mg/kg/injection, schedule: Q01DX009 (ip), vehicle: saline with Tween-80): 89 % of control
- T/C (dose: 50.0 mg/kg/injection, schedule: Q01DX009 (ip), vehicle: saline with Tween-80): 97 % of control
- T/C (dose: 100.0 mg/kg/injection, schedule: Q01DX009 (ip), vehicle: saline with Tween-80): 89 % of control
- T/C (dose: 400.0 mg/kg/injection, schedule: Q01DX009 (ip), vehicle: saline with Tween-80): 94 % of control

SMILES: O=[N+]([O-])c1ccc(N/N=C/C(Br)(Br)Br)c([N+](=O)[O-])c1
- T/C (dose: 50.0 mg/kg/injection, schedule: Q01DX001 (ip), vehicle: carboxymethylcellulose (CMC)): 99 % of control
- T/C (dose: 100.0 mg/kg/injection, schedule: Q01DX001 (ip), vehicle: carboxymethylcellulose (CMC)): 94 % of control

SMILES: CNC1=C(N2CC2C)C(=O)C(NC)=C(N2CC2C)C1=O (centres undefined)
- T/C (dose: 0.31 mg/kg/injection, schedule: Q01DX009 (ip), vehicle: saline): 104 % of control and 108 % of control
- T/C (dose: 0.62 mg/kg/injection, schedule: Q01DX009 (ip), vehicle: saline): 104 % of control
- T/C (dose: 1.25 mg/kg/injection, schedule: Q01DX009 (ip), vehicle: saline): 114 % of control and 116 % of control
- T/C (dose: 1.56 mg/kg/injection, schedule: Q04DX003 (ip), vehicle: saline): 101 % of control
- T/C (dose: 2.5 mg/kg/injection, schedule: Q01DX009 (ip), vehicle: saline): 116 % of control
- T/C (dose: 3.12 mg/kg/injection, schedule: Q04DX003 (ip), vehicle: saline): 98 % of control and 111 % of control and 115 % of control
- T/C (dose: 5.0 mg/kg/injection, schedule: Q01DX009 (ip), vehicle: saline): 169 % of control
- T/C (dose: 6.25 mg/kg/injection, schedule: Q04DX003 (ip), vehicle: saline): 109 % of control and 123 % of control
- T/C (dose: 10.0 mg/kg/injection, schedule: Q01DX001 (ip), vehicle: saline): 96 % of control
- T/C (dose: 10.0 mg/kg/injection, schedule: Q01DX009 (ip), vehicle: saline): 94 % of control and 119 % of control
- T/C (dose: 12.0 mg/kg/injection, schedule: Q04DX003 (ip), vehicle: saline): 152 % of control
- T/C (dose: 12.5 mg/kg/injection, schedule: Q04DX003 (ip), vehicle: saline): 152 % of control and 193 % of control
- T/C (dose: 25.0 mg/kg/injection, schedule: Q04DX003 (ip), vehicle: saline): 96 % of control and 118 % of control
- T/C (dose: 50.0 mg/kg/injection, schedule: Q04DX003 (ip), vehicle: saline): 98 % of control and 89 % of control

SMILES: CCCCCCCCCCCCCCCCCC(=O)OCC(COC(=O)CCCCCCCC(CO)CCCCCCCCC)OC(=O)CCCCCCCC(CO)CCCCCCCCC (centres undefined)
- T/C (dose: 100.0 mg/kg/injection, schedule: Q04DX002 (ip), vehicle: Klucel (hydroxypropylcellulose) (HPC)): 101 % of control
- T/C (dose: 200.0 mg/kg/injection, schedule: Q04DX002 (ip), vehicle: Klucel (hydroxypropylcellulose) (HPC)): 101 % of control
- T/C (dose: 400.0 mg/kg/injection, schedule: Q04DX002 (ip), vehicle: Klucel (hydroxypropylcellulose) (HPC)): 101 % of control

SMILES: CSCCC(O)C(=O)O (centres undefined)
- T/C [1]: 101 % of control
- T/C [2]: 95 % of control
- T/C [3]: 101 % of control

SMILES: NC(=S)Cc1ccccc1
- T/C (dose: 100.0 mg/kg/injection, schedule: Q01DX001 (ip), vehicle: Klucel (hydroxypropylcellulose) (HPC)): 91 % of control
- T/C (dose: 200.0 mg/kg/injection, schedule: Q01DX001 (ip), vehicle: Klucel (hydroxypropylcellulose) (HPC)): 87 % of control
- T/C (dose: 400.0 mg/kg/injection, schedule: Q01DX001 (ip), vehicle: Klucel (hydroxypropylcellulose) (HPC)): 100 % of control
